# Earlier results in patent US20080214562A1, “Chemical Compounds” (priority 2005, published 2008).
# Tested on: T-tropic HIV
# Details: patients that are dual tropic or where only the T-tropic form of the virus is present
smiles,measurement,value
c1cc(CN2CCCNCCNCCCNCC2)ccc1CN1CCCNCCNCCCNCC1 [AMD-3100],T-tropic HIV viral load,significantly reduce
